Common to all, as to assay: NCI tumour cell line growth inhibition, 48 h
The test system of assay [1] is A549 NSCLC.
For assay [2], the system named is COLO 205 colon.
Assay [3] concerns EKVX NSCLC.
Assay [4] concerns HCT-116 colon.
The test system of assay [5] is HOP-62 NSCLC.
Assay [6] has as its system MOLT-4 leukemia.
Assay [7] concerns NCI-H23 lung.
Assay [8] deals with OVCAR-5 ovarian.
Assay [9] concerns RPMI-8226 leukemia.
Assay [10] relates to SNB-75 CNS.

Structures are written as SMILES.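 In this assay, cells in 96-well plates receive the compound at five concentrations for 48 hours. Endpoints are linearly interpolated between the surrounding concentrations. GI50 is the concentration that inhibits growth by half. TGI: concentration producing complete growth inhibition.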 Bounds are passed on as bounds.

Turning to `COc1cccc(NC(=O)CC(=O)NNCC(=O)Nc2nnc(-c3ccc(N(CCC#N)S(=O)(=O)c4ccccc4)cc3)s2)c1`, the TGI in [1], in assay [2], in assay [3], in assay [4], in assay [5] and in assay [6] was above 100 µM each time. Besides, the TGI in [7], in assay [8] and in [9] was above 100 µM each time.
`COc1ccc2c(c1)CC1Cc3ccccc3CCN1C2` (stereo not given): the TGI in assay [1], in [2], in assay [3], in assay [4], in [5] and in [6] was above 100 µM each time. Further, the TGI in assay [7] was above 100 µM; in [8] it was above 100 µM; in [9], 92.3 µM; in [10] it was above 100 µM.
In the case of `CCC(=O)NC(OCC1(CC)COC1)(C(F)(F)F)C(F)(F)F`, the TGI in assay [3], in assay [4], in assay [5], in assay [6], in [7] and in assay [8] was above 100 µM in each case. In addition, the TGI in [9] and in [10] was above 100 µM in each case.
In the case of `COc1cc(OC)cc(-c2n/c(=C\c3c(O)[nH]c4ccc(Cl)cc34)cc3c2=Nc2ccccc2-3)c1`, the GI50 is 3.21 µM in [1]; 13.6 µM in [3]; 1.9 µM in assay [4]; 1.99 µM in [5]; 2.18 µM in assay [6]; 2.34 µM in [7]. The GI50 is 20.5 µM in [8], 16.3 µM in assay [9] and 16.3 µM in [10]. The TGI in assay [1] is 11.1 µM; in assay [3] it was 37.8 µM; in assay [4], 3.43 µM; in assay [5] it was 3.99 µM; in assay [6], 4.74 µM; in [7], 6.06 µM. Further, the TGI was 63.8 µM in [8], above 100 µM in assay [9] and 39.6 µM in assay [10].
Consider `CCNc1ncnc2c1nnn2CC`, for which the TGI in [1], in assay [2], in assay [3], in assay [4], in [5] and in assay [6] was above 100 µM in each case. Besides, the TGI in [7], in [9] and in [10] was above 100 µM in each case.
Take `COC(=O)C1=C(C)N(NC(=O)c2ccccc2)C2(O)CCCC(=O)C12C` (stereo not given): the TGI in assay [1], in assay [2], in assay [4], in [7], in assay [8] and in assay [9] was above 100 µM throughout. The TGI in assay [10] was above 100 µM.
As to `CC(C)(C)OC(=O)NCC(=O)NC1C/C(=N\O)c2sccc21` (stereo not given), the TGI in [1], in assay [2], in [3], in [4], in assay [5] and in assay [6] was above 100 µM in each case. Also, the TGI in assay [7], in assay [8] and in [10] was above 100 µM each time.
Regarding `CN(/N=N/c1nc[nH]c1C(N)=O)C1CCCCC1`, the TGI in assay [1], in assay [2], in assay [3], in assay [4], in assay [5] and in assay [6] was above 100 µM in each case. In addition, the TGI in assay [7], in assay [8], in assay [9] and in assay [10] was above 100 µM throughout.
Turning to `COc1ccc2c(c1OC)C(=O)O[C@@H]2[C@H]1c2cc3c(cc2CCN1C)OCO3`, the TGI in assay [1], in assay [2], in assay [3], in assay [4], in assay [5] and in [6] was above 100 µM in each case. Besides, the TGI in assay [7], in assay [8], in assay [9] and in [10] was above 100 µM each time.
